The values that follow come from article PMC3885398, “Evaluation of the Antitumor Effects of BPR1J-340, a Potent and Selective FLT3 Inhibitor, Alone or in Combination with an HDAC Inhibitor, Vorinostat, in AML Cancer” (PLoS ONE, 2014).

One test has as its target FLT4 (VEGFR3) (Homo sapiens, UniProt P35916). Kind of test: Invitrogen SelectScreen kinase profiling. Format: biochemical. Further details: purchased Invitrogen SelectScreen. The settings on record: 100 nM. On the procedure: (§1) The FLT3 and VEGFR1/2 Kinase-Glo kinase assays were performed as reported by our earlier study. The VEGFR3 activity analysis was conducted using the same protocol described in the VEGFR1/2 assay. The kinase inhibition profiling and inhibitory activity of FLT3-D835Y, CSF1R, and TRKA were determined by Invitrogen SelectScreen® kinase profiling service (Carlsbad, California, USA).
(§2) BPR1J-340, a urea-substituted 3-phenyl-1H-5-pyrazolylamine-based compound, was designed through chemical modification of sulfonamide series of derivatives (BPR1J-097 series) by a structure-activity relationship (SAR) study (Fig. 1), [32]. For kinase inhibition specificity screening, BPR1J-340 was tested against 59 protein kinases covering the major oncogenic kinases of human protein kinome. […] In addition, BPR1J-340 inhibited TRKA, which is associated with the growth and metastasis of breast cancers, with an IC50 value of 8 nM. Given the high similarity of the ATP binding pockets of FLT3 and the Aurora kinases, the inhibitory activity toward Aurora A and Aurora B were measured. […] Taken together, BPRJ-340 is a selective kinase inhibitor with in vitro activity against FLT3, VEGFR2, VEGFR3 and TRKA receptor tyrosine kinases.

The next test deals with KDR (VEGFR2) (Homo sapiens, UniProt P35968). Kind of test: Invitrogen SelectScreen kinase profiling. In kind it is biochemical. Further details: purchased Invitrogen SelectScreen. Particulars: 100 nM. On the procedure: as §1, §2
Chain of KDR (VEGFR2) (P35968 20-1356): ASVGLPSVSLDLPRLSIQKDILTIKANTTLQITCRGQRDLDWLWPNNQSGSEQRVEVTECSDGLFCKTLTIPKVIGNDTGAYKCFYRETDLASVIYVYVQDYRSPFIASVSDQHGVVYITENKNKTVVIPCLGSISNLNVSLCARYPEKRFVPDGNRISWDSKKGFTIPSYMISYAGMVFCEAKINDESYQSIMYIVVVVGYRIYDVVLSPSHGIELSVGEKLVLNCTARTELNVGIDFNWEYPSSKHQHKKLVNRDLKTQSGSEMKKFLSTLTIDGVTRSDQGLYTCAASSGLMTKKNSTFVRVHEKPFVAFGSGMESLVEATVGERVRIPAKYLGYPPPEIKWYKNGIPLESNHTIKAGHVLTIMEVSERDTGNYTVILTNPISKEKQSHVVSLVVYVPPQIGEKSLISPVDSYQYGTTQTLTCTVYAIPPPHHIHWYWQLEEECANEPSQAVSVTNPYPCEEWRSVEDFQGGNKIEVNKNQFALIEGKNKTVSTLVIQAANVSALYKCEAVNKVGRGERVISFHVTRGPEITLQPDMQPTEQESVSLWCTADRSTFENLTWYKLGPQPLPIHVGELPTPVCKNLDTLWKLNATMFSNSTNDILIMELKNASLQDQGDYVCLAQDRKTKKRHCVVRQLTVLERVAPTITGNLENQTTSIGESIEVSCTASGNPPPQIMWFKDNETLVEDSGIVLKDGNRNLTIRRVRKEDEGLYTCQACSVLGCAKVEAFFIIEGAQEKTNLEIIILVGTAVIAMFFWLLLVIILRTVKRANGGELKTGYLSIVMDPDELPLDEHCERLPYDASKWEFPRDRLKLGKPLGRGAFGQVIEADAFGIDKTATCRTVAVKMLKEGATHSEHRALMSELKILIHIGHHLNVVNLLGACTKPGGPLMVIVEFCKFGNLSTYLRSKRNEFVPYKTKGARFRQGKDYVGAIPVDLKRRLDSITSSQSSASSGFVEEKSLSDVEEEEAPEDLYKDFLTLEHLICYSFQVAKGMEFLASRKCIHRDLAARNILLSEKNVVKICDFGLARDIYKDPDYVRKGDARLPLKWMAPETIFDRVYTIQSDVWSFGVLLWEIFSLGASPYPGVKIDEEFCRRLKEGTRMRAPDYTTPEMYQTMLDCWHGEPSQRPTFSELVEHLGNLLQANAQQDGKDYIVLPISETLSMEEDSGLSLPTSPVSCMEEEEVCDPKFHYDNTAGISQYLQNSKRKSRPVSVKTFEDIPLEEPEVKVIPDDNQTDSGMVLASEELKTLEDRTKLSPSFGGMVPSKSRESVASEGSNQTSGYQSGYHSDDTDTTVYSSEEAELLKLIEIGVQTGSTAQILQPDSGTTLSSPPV
For the next test, the system named is STAT5 phosphorylation. Kind of test: STAT5 phosphorylation in MV4;11 cells, Western blot. In kind it is cell-based. Particulars: Homo sapiens, 1 hour. On the procedure: Cells were lysed in lysis buffer (50 mM Tris, pH 8.0, 150 mM NaCl, 1% Triton X-100, 0.5% sodium deoxycholate, 0.1% SDS, 1 mM sodium orthovanadate, 1 mM PMSF, and 1 mM DTT). Protein lysates were resolved by SDS-PAGE and transferred onto a polyvinylidene difluoride (PVDF) membrane (Millipore, Bedford, MA, USA). The membranes were immunoblotted with appropriate antibodies and detected using the SuperSignal reagent (Pierce, Rockford, IL, USA) followed by exposure to X-ray film.
To address whether BPR1J-340 was able to inhibit the FLT3 signaling pathway in FLT3-driven cells, MV4;11 cells were treated with different concentrations of BPR1J-340 for 1 hour, and the phosphorylation status of FLT3 and STAT5 (Signal Transducer and Activator of Transcription 5), a critical down-stream modulator that plays a major role in FLT3-ITD signal transduction for cell expansion and survival, was examined by Western blot analysis. […] To investigate the difference in sensitivity between FLT3-WT and the activating mutants FLT3-ITD and FLT3-D835Y to BPR1J-340, HEK293T cells engineered to express FLT3-WT or mutants FLT3 (FLT3-ITD, FLT3-D835Y) were analyzed. […]
Figure 2 BPR1J-340 inhibits FLT3-dependent signaling. […] The phosphorylation status of FLT3 and STAT5 were evaluated by Western blot analysis. […] The FLT3 phosphorylation status in the transfected cells was evaluated by Western blot analysis.

The test system of the next test is MKN45. The test is described as follows: Cell viability MTS assay. In kind it is cell-based. Particulars: Homo sapiens, MKN-45; MKN45, non-leukemia; read-out: Proliferation GI50. On the procedure:
(§3) Cell viability was assessed with an MTS assay as carried out as the method described previously. Cells were seeded in 96-well plates at a density of 10,000 cells per well for 16 hours and then treated with vehicle or various concentrations of compound in medium. The change in viable cells was quantitated using the MTS method (Promega, Madison, WI, USA) according to the manufacturer's recommended protocol or by cell counting under a microscope. The GC50 value was defined as the amount of compound that caused a 50% reduction in cell viability in comparison with DMSO-treated (vehicle) control and was calculated using Prism version 4 software (Graph-Pad Software, Inc., San Diego, CA, USA). The data are presented as the mean ± S.D. from three independent experiments. Cell growth were measured by trypan blue dye exclusion method. Cells (1×10^4 mL^−1) were cultured in 12-well plates for 24 hours and then treated with different amounts of test compound and the same volumes of vehicle for 72 hours. The number of viable cells was counted by trypan blue dye staining using a hemocytometer at the indicated time point after drug treatment. The result was expressed as the mean ± S.D. from triplicate determinations.
(Tetrazolium dyes change colour on reduction, which living cells bring about.)

Another test concerns Hep3B. The test is described as follows: Cell viability MTS assay. Format: cell-based. The settings on record: Homo sapiens, non-leukemia, read-out: Proliferation GI50. On the procedure: as §3
A further test has as its system U937. Kind of test: Cell viability MTS assay. In kind it is cell-based. Particulars: Homo sapiens, U-937; U937, leukemia; read-out: Proliferation GI50. As to the method:
as §3

A further test relates to MiaPaCa-2. The test is described as follows: Cell viability MTS assay. Format: cell-based. The settings on record: Homo sapiens, MIA PaCa-2; MiaPaCa-2, non-leukemia; read-out: Proliferation GI50. As to the method: as §3
In another test the test system is RS4;11. Kind of test: Cell viability MTS assay. In kind it is cell-based. Particulars: Homo sapiens; RS4;11, leukemia, wild-type FLT3, FLT3-independent; read-out: Proliferation GI50 (GC50 in the text). As to the method:
as §3

In another test the test system is H1650. Kind of test: Cell viability MTS assay. Format: cell-based. The settings on record: Homo sapiens, NCI-H1650; H1650, non-leukemia; read-out: Proliferation GI50. On the procedure: as §3

Chain of FLT4 (VEGFR3) (P35916 25-1363): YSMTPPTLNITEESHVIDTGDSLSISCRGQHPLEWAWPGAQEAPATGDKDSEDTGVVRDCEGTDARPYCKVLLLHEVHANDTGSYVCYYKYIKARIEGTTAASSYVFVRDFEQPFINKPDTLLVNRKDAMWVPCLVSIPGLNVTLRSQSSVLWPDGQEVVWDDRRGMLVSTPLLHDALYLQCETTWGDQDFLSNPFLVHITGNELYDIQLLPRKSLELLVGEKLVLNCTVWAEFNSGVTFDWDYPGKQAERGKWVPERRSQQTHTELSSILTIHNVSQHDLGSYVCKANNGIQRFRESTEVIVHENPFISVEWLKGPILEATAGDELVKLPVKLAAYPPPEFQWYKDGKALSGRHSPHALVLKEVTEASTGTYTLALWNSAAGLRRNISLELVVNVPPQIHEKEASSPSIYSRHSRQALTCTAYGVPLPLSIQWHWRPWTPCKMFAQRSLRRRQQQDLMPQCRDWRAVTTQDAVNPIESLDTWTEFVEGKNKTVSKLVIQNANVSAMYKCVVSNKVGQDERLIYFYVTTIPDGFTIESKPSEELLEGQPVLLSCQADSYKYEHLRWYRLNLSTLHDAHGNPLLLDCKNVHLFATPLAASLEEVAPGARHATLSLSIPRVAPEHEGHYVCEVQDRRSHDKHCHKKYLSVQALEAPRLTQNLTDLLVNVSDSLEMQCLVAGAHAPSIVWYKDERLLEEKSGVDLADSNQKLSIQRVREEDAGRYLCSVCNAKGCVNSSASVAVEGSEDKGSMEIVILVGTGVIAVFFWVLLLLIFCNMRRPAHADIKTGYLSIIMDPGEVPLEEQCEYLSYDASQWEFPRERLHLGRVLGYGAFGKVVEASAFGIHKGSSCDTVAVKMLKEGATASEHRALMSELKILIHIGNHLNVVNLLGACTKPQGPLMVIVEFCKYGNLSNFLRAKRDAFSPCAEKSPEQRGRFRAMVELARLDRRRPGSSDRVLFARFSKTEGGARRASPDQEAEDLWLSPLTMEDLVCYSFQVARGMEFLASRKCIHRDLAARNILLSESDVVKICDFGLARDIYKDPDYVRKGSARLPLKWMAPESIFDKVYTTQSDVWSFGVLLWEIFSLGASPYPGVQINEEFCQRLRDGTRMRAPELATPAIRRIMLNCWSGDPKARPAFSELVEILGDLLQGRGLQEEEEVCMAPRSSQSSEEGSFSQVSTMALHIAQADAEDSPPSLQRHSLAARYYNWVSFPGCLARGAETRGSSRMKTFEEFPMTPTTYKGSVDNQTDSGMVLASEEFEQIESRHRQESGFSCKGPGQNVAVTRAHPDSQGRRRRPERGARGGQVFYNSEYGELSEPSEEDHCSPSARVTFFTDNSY

In the case of `CCc1cc(NC(=O)NCc2ccc(-c3cc(NC(=O)c4ccc(CN5CCN(C)CC5)cc4)[nH]n3)cc2)no1` [BPR1J-340, N1-(3-4-[([(5-ethyl-3-isoxazolyl)amino]carbonylamino)methyl]phenyl-1H-5-pyrazolyl)-4-[(4-methylpiperazino)methyl]benzamide], the inhibition at 0.1 µM against FLT4 (VEGFR3) stood at 45%; on KDR (VEGFR2) it was 69%. Besides, in the test on STAT5 phosphorylation, the concentration for half-maximal inhibition (IC50) is ~0.001 µM. The GI50 was 3.58 µM in the test with MKN45; 8.31 µM with Hep3B; 2.4 µM in the test on U937; 9.96 µM in the test on MiaPaCa-2; 0.77 ± 0.36 µM in the test on RS4;11; 3.73 µM in the test with H1650.

The term inhibition denotes the share of the control response that was lost under treatment. For orientation: IC50 means the concentration at which inhibition is half-maximal. A high value points to weaker potency.
